How the values were obtained:
[1] = system: obesity-induced NASH-associated mouse liver cancer model; experiment: DMBA plus high fat diet-induced NASH-associated mouse liver cancer model: tumor development and body weight; format: in vivo
Protocol: FIG. 1 depicts a mouse model timeline developed by treating with 7,12-dimethylbenz(a)anthracene (“DMBA”), and by feeding with a high fat diet (HFD). Compound A was administered to the mice every day from 19 weeks of age to 30 weeks of age and then euthanized (“Eut”).
FIG. 2 is macroscopic photographs of the liver isolated from the vehicle-treated mice (left side) and Compound A-treated mice (right side). […] Compound A or a vehicle (n=5, each) were treated to the mice every day from 19 weeks of age to 30 weeks of age. Arrowheads identify hepatocellular carcinomas (HCCs).
FIG. 3 depicts the average liver tumor numbers and the relative size distribution (classified as >6 mm, 2-6 mm, 2 mm). “NS” means not significant.
FIG. 4 depicts the average body weight of the vehicle-treated group and Compound A-treated group at the age of 30 weeks. Data are represented as means±SD.
C57/BL6 mice were purchased from CLEA Japan Inc. The TIr2^−/− mice (C57/BL6) were purchased from Oriental Yeast Co. Ltd.
Hematoxylin and eosin staining and immunofluorescence analysis were performed as previously described (Yoshimoto et al., Nature, 2013, 499:97-101).
P values less than 0.05 were considered significant. “NS” indicates not significant.
This mouse model was developed by treating with DMBA, 7,12-dimethylbenz(a)anthracene, and by feeding a high fat diet (HFD) (Ootani 2013). […] In this experiment, Compound A 30 mg/kg QD was administered to the mice every day from 19 weeks of age to 30 weeks of age (FIG. 1). As a control, a separate group of mice were treated only with a vehicle and no active ingredient.

[2] = system: immune cells obtained from mouse livers; details: liver, 30 mg/kg QD, vs vehicle
Protocol: FIG. 5A depicts flow cytometry analysis of immune cells between vehicle-treated mice or Compound A-treated mice. The percentages of total CD11c^hi MHC class II (MHC II)^hi, CD11b^+ CD11c^hi MHC II^hi, or CD103^+ CD11c^hiMHC II^hi cells were analyzed by flow cytometry. Data are represented as means±SEM.
FIG. 6A depicts the percentages of CD3^+ CD4^+ Foxp3^+, CD3^+ CD4^+ Foxp3^−, CD3^+ CD8^+ cells analyzed by flow cytometry. The ratio of CD8^+ T cells to CD4^+ Foxp3^+ Tregs was calculated. Data are represented as means±SEM. NS=not significant, *p<0.05, **p<0.01.
In FIG. 7A, the percentages of CD69^+ CD8^+ cells were analyzed by flow cytometry (*p<0.05, **p<0.01).
In FIG. 8A, the percentages of PD-1^+ CD8^+ cells were analyzed by flow cytometry (*p<0.05, **p<0.01).
Immune cells were obtained from mouse livers and were subjected to measuring cytokine production and flow cytometric analysis.
Data were analyzed by unpaired t-test with Welch correction (two-side) or Man-Whitney test (two-side). P values less than 0.05 were considered significant. “NS” indicates not significant.
The impact of EP4 blockage on the prevalence and activation status of immune cells was assessed.

C[C@H](NC(=O)c1cc(Cl)cnc1Oc1cccc(F)c1)c1ccc(C(=O)O)cc1 [Compound A, 4-[(1S)-1-({[5-chloro-2-(3-fluorophenoxy)pyridin-3-yl]carbonyl}amino)ethyl]-benzoic acid] was tested, and the body weight ([1]; 30 mg/kg QD, at the age of 30 weeks, FIG. 4) was “did not influence body weight”, the “Hepatocellular carcinoma (HCC) development” value ([1]; Compound A 30 mg/kg QD from 19 to 30 weeks of age, compared to vehicle-treated mice) was “strongly reduced” and the “Tumor colony sized more than 6 mm” value ([1]; after daily therapy from 19 to 30 weeks of age, FIG. 3) was “completely disappeared”. For the same compound, the “tumor number in the liver” value ([1]; treated daily from 19 to 30 weeks of age, compared to vehicle-treated mice, FIG. 3) was “significantly inhibited”, the “frequency of CD11b+ DCs” value ([2]; FIG. 5A/5B) was “not changed” and the “frequency of CD11chi MHC class IIhi dendritic cells (DCs)” value ([2]; FIG. 5A/5B) was “not changed”. For the same compound, the “population of CD103+ DCs” value ([2]; FIG. 5A/5B) was “increased”, the “frequency of CD8+ T cells” value ([2]; FIG. 6A) was “not changed” and the “ratio of CD8+ T cells to Tregs” value ([2]; FIG. 6A) was “increased”. For the same compound, the “frequency of CD4+Foxp3+ regulatory T cells (Tregs)” value ([2]; FIG. 6A/6B) was “significantly reduced”, the “frequency of CD4+Foxp3- T cells” value ([2]; FIG. 6A/6B) was “but not CD4^+Foxp3^− T cells, was significantly reduced” and the “number of CD8+ T cells expressing the activation marker CD69” value ([2]; FIG. 7A/7B) was “significantly increased”. The “number of CD8+ T cells expressing programmed cell death-1 (PD-1)” value ([2]; FIG. 8A/8B) was “significantly reduced”.

From US10583129B2, “Use of EP4 receptor antagonists for the treatment of NASH-associated liver cancer” (AskAt Inc., priority 2016, dated 2020)
